According to the CheMixHub ionic liquid set:

Test: xn = mol fraction of the nth substance listed

CCCCCCCCCCCC[N+](C)(C)C.[Br-] + [Cl-].[Na+] + O
298.15 K, 101 kPa
Conditions | electrical conductivity [S/m]
x1 = 2.89e-06, x2 = 0.001799 | 0.8786
x1 = 4.51e-06, x2 = 0.0001802 | 0.1179
x1 = 7.42e-06, x2 = 0.001799 | 0.8778
x1 = 9.37e-06, x2 = 0.0001802 | 0.1201
x1 = 1.357e-05, x2 = 0.001799 | 0.878
x1 = 1.406e-05, x2 = 0.0001802 | 0.1223
x1 = 2.037e-05, x2 = 0.0001802 | 0.1252
x1 = 2.28e-05, x2 = 0.001799 | 0.8786
x1 = 2.92e-05, x2 = 0.0001802 | 0.1294
x1 = 3.184e-05, x2 = 0.001799 | 0.8802
x1 = 4.038e-05, x2 = 0.0001802 | 0.1348
x1 = 4.071e-05, x2 = 0.001799 | 0.8816
x1 = 4.957e-05, x2 = 0.001799 | 0.8831
x1 = 5.047e-05, x2 = 0.0001802 | 0.1397
x1 = 5.536e-05, x2 = 0.001799 | 0.8846
x1 = 6.115e-05, x2 = 0.001799 | 0.8858
x1 = 6.183e-05, x2 = 0.0001802 | 0.1451
x1 = 6.694e-05, x2 = 0.001799 | 0.8876
x1 = 7.273e-05, x2 = 0.001799 | 0.8895
x1 = 7.319e-05, x2 = 0.0001801 | 0.1504
x1 = 7.87e-05, x2 = 0.001799 | 0.8913
x1 = 8.4e-05, x2 = 0.0001801 | 0.1556
x1 = 8.467e-05, x2 = 0.001799 | 0.893
x1 = 9.064e-05, x2 = 0.001799 | 0.8946
x1 = 9.481e-05, x2 = 0.0001801 | 0.1607
x1 = 9.642e-05, x2 = 0.001799 | 0.8963
x1 = 0.000102, x2 = 0.001799 | 0.8978
x1 = 0.0001071, x2 = 0.0001801 | 0.1667
x1 = 0.0001078, x2 = 0.001799 | 0.8993
x1 = 0.0001134, x2 = 0.001799 | 0.9008
x1 = 0.0001199, x2 = 0.0001801 | 0.1727
x1 = 0.0001219, x2 = 0.001799 | 0.9032
x1 = 0.0001275, x2 = 0.001799 | 0.9048
x1 = 0.0001309, x2 = 0.0001801 | 0.1778
x1 = 0.0001331, x2 = 0.001799 | 0.9066
x1 = 0.0001415, x2 = 0.001798 | 0.9086
x1 = 0.0001435, x2 = 0.0001801 | 0.1838
x1 = 0.0001498, x2 = 0.001798 | 0.9101
x1 = 0.0001548, x2 = 0.0001801 | 0.1892
x1 = 0.0001554, x2 = 0.001798 | 0.9111
x1 = 0.000161, x2 = 0.001798 | 0.9122
x1 = 0.0001673, x2 = 0.0001801 | 0.1949
x1 = 0.0001693, x2 = 0.001798 | 0.9132
x1 = 0.0001776, x2 = 0.001798 | 0.9143
x1 = 0.0001793, x2 = 0.0001801 | 0.2005
x1 = 0.0001856, x2 = 0.001798 | 0.9156
x1 = 0.0001914, x2 = 0.0001801 | 0.2061
x1 = 0.0001935, x2 = 0.001798 | 0.9166
x1 = 0.0002017, x2 = 0.001798 | 0.9175
x1 = 0.0002022, x2 = 0.0001801 | 0.2111
x1 = 0.0002098, x2 = 0.001798 | 0.9186
x1 = 0.0002138, x2 = 0.0001801 | 0.2164
x1 = 0.000218, x2 = 0.001798 | 0.9197
x1 = 0.0002251, x2 = 0.0001801 | 0.2214
x1 = 0.0002259, x2 = 0.001798 | 0.9207
x1 = 0.0002339, x2 = 0.001798 | 0.9217
x1 = 0.0002365, x2 = 0.0001801 | 0.2263
x1 = 0.000246, x2 = 0.0001801 | 0.2301
x1 = 0.000257, x2 = 0.0001801 | 0.2333
x1 = 0.0002685, x2 = 0.0001801 | 0.2357
x1 = 0.0002797, x2 = 0.0001801 | 0.2376
x1 = 0.0002912, x2 = 0.0001801 | 0.2394
x1 = 0.0003044, x2 = 0.0001801 | 0.2413
x1 = 0.000319, x2 = 0.0001801 | 0.2432
x1 = 0.0003359, x2 = 0.0001801 | 0.2454
x1 = 0.0003538, x2 = 0.0001801 | 0.2477
x1 = 0.0003736, x2 = 0.0001801 | 0.2502
x1 = 0.0003955, x2 = 0.0001801 | 0.2528
x1 = 0.0004254, x2 = 0.0001801 | 0.2566

CC[n+]1ccn(C)c1.N#C[S-] + [N-]=C=S.[NH4+]
100 kPa, x2 = 0
Conditions | electrical conductivity [S/m] | viscosity [mPa·s]
323.15 K | 4.38 | 11.49
348.15 K | – | 6.87
353.15 K | – | 6.17

CCCCn1n[n+](CC)c2ccccc21.F[P-](F)(F)(F)(F)F + c1c[nH]cn1
101.3 kPa, x2 = 0.6993
Conditions | electrical conductivity [S/m] | viscosity [mPa·s]
343 K | 1.1 | 11
353 K | 1.4 | 7.7
363 K | 1.8 | 5.6
373 K | 2.2 | 5.2
383.1 K | 2.9 | 4.2
393.1 K | 3.2 | 3.6
403.1 K | 3.8 | 3.1

CCCC[N+]1(C)CCCC1.N#C[C-](C#N)C#N + c1ccc2sccc2c1
101 kPa
Conditions | viscosity [mPa·s]
308.15 K, x2 = 0 | 20.6
308.15 K, x2 = 0.5267 | 11.92
328.15 K, x2 = 0.5267 | 7.1
338.15 K, x2 = 0.3565 | 6.96

N#C[C-](C#N)C#N.OCC[n+]1ccccc1 + c1ccsc1
101 kPa
Conditions | viscosity [mPa·s]
293.15 K, x1 = 0.7041 | 52.2
293.15 K, x1 = 1 | 137
298.15 K, x1 = 0.901 | 67.1
303.15 K, x1 = 0.4996 | 19.1
303.15 K, x1 = 0.901 | 50.9
318.15 K, x1 = 0.8044 | 21.1
323.15 K, x1 = 0.6 | 12.2
328.15 K, x1 = 0.7041 | 12.6
328.15 K, x1 = 0.901 | 17.9
333.15 K, x1 = 0.4996 | 7.57
333.15 K, x1 = 0.6 | 9.12
338.15 K, x1 = 0.4042 | 5.4
338.15 K, x1 = 0.4996 | 6.54
338.15 K, x1 = 0.7041 | 9.43
343.15 K, x1 = 0.4996 | 5.74
343.15 K, x1 = 0.8044 | 9.9
